Reference: patent US20030144477A1, “Immunodominant acetylcholine receptor alpha subunit peptide: MHC complexes” (Corixa Corporation, priority 2001, published 2003)
Each block holds one molecule with its values, some of them ahead of it. Peptide text beside a SMILES is read from it.

Columns and labels:
HLA-DR2 = test: IC50
Excerpt: Table printed on a drawing sheet, FIGURE 4
The best fit of AChRα peptide sequences to published HLA-DR2 motifs is indicated along with the IC50 value.
First copying reader's note: Sequences are printed with horizontal offsets as a motif alignment; the offsets are not reproduced in the grid.

[1] = test system: PBMCs from MG patients and normal healthy individuals; test: modified ELISPOT assay of T cell reactivity (γ-IFN spots, reactive index); format: cell-based, human; conditions: reactive index above two; HLA type ignored; 9 MG patients vs 30 normals
Excerpt: In addition, a modified ELISPOT assay, termed the Clonal Expansion ELISA-Spot (or CEE-SPOT) assay can also be used in the context of the present invention. In the CEE-SPOT assay, PBMCs are stimulated with antigen for an appropriate amount of time (e.g., 7 days) to promote proliferation of the antigen-specific T cells prior to re-stimulation and lymphokine capture (e.g., on day 10). […] The production of lymphokines can be measured using this assay, including, e.g., IL-2, IL-4, etc. Typically, lymphokine is captured on a filter, preferably a PVDF filter to improve the background and intensity of the spots. Spot counting is typically carried out using videocamera imaging and computer analysis. This type of assay can also be used to identify epitopes derived from natural processing, by first stimulating T cells with the whole protein and then re-stimulating them with peptides derived from the protein.
T cell reactivity of the above peptides to patient and normal healthy individual PBMCs was measured by modified ELISPOT assay. PBMCs obtained from 30 normals and 9 MG patients were included in this study. The above peptides along with TT/PPD as positive control and media as negative control were tested for T cell reactivity. […] Antigen specific cell stimulation profile for each antigen was measured by the secretion of γ-IFN detected as spots using a pair of anti-γIFN antibodies set. […]

[2] = molecular target: solubilized HLA-DR2 (a mix of DRB1*1501 and DRB5*0101) (Homo sapiens, UniProt P01903+P01911+Q30154); test: DELFIA competitive binding assay against biotinylated MBP 84-102, solubilized HLA-DR2; conditions: for relative affinity for HLA-DR2: in words, from IC50 / 1/IC50 plot
Excerpt: (§1) Important peptides in MG can be identified, for example, by screening a set of overlapping AChR peptides for binding to HLA-DR2 and HLA-DR3. The binding affinity of a peptide to the MHC compound can be measured using a variety of binding assays known to those of skill in the art. An example of suitable binding assay is the europium-based competitive binding assay (see, e.g., Tompkins et al. (1993) J. Immunol. Methods 163:209-216). Additionally, the capacity of the peptides of the invention to induce a T cell response can be determined using a variety of standard methods, known to those of skill in the art, as described below.
A set of 68 overlapping AChRα peptides (14 mer with 7 amino acids overlapping) was tested by dissociation-enhanced lenthanide fluoroimmunoassay (“DELFIA”) competitive binding assay for their relative affinity to HLA-DR4. […] Measurement of the IC50 is preferably done by europium-streptavidin dissociation-enhanced lenthanide fluoroimmunoassay (DELFIA) and the IC50 typically calculated by four parameter fit analysis with the software program SOFTmax Pro.

HLA-DR1 = test: DELFIA europium-based competitive binding assay, HLA-DR1; set-up: species or system human; conditions: competitive binding to HLA-DR1
[3] = molecular target: solubilized DR4 (HLA-DR4); test: europium-based competitive binding assay using solubilized DR4; set-up: species or system human; conditions: competitive binding to solubilized DR4
Experimental: (§2) A set of 68 overlapping AChRα peptides (14 mer with 7 amino acids overlapping) was tested by dissociation-enhanced lenthanide fluoroimmunoassay (“DELFIA”) competitive binding assay for their relative affinity to […]. […] The sequence of the AChRα subunit is shown with each of the transmembrane regions (M1-M4) indicated by a shaded box.) Ten-fold dilutions (preferably 1-100,000 nM) of unlabeled AChRα peptides were co-incubated at pH 5.5 with the biotinylated myelin basic protein peptide MBP 84-102, and the IC50 of binding to solubilized HLA-DR2 (a mix of DRB1*1501 and DRB5*0101) or HLA-DR3 (a mix of DRB1*0301 and DRB3*0101) was measured. Measurement of the IC50 is preferably done by europium-streptavidin dissociation-enhanced lenthanide fluoroimmunoassay (DELFIA) and the IC50 typically calculated by four parameter fit analysis with the software program SOFTmax Pro. FIG. 2 lists the IC50s of each AChRα peptide binding to HLA-DR2 and HLA-DR3.
In addition, the relative affinity for HLA-DR4 of a set of sixty nine synthetic overlapping peptides of AchRα (14 mer with 7 amino acids overlapping) was measured by a europium-based competitive binding assay using solubilized DR4. The concentration of AchR peptides required to inhibit 50% binding of a known DR4 binding peptide was calculated for each peptide. High affinity peptides were identified based on their IC50 value.

[4] = molecular target: HLA-DR3 (a mix of DRB1*0301 and DRB3*0101); test: DELFIA competitive binding assay against biotinylated MBP 84-102, solubilized HLA-DR3; set-up: species or system human; conditions: for IC50: competitive binding to solubilized HLA-DR3, pH 5.5, vs biotinylated MBP 84-102; for affinity for HLA-DR3: in words, from IC50
Excerpt: as §1, §2

Molecule: TGHITWTPPAIFKS [AChRα 113-126, AChRα subunit peptide fragment, residues 113-126] [listing 1 of 2 here]
IC50 (HLA-DR2): 2.83 µM

Molecule: V E V T V G L Q L I Q L I N (VEVTVGLQLIQLIN) [AChRα 27-42]
IC50 (HLA-DR2): 9.18 µM

IC50 ([2]; competitive binding to solubilized HLA-DR2, pH 5.5, vs biotinylated MBP 84-102): 11 µM
IC50 (HLA-DR1): 11.2 µM
IC50 [3]: 3.63 µM
IC50 [4]: 7.3 µM
affinity for HLA-DR3 [4]: high affinity
Molecule: CC[C@H](C)[C@H](NC(=O)[C@H](CCC(N)=O)NC(=O)[C@H](CC(N)=O)NC(=O)[C@@H](NC(=O)[C@H](CCC(=O)O)NC(=O)[C@H](CC(=O)O)NC(=O)[C@@H](NC(=O)[C@H](CC(N)=O)NC(=O)[C@@H](NC(=O)[C@H](CC(C)C)NC(=O)[C@H](CCC(N)=O)NC(=O)[C@@H](NC(=O)[C@H](CC(C)C)NC(=O)[C@@H](N)CCC(N)=O)[C@@H](C)CC)[C@@H](C)CC)C(C)C)C(C)C)C(=O)O [AChRα 36-49] (H-QLIQLINVDEVNQI-OH; N-terminus and C-terminus assumed)
per cent of patients that show reactivity compared with per cent of normal healthy individuals [1]: approximately twice

affinity for HLA-DR3 [4]: high affinity
Molecule: DTPYLDITYHFVMQRLPL [AChRα 195-212]

Molecule: TGHITWTPPAIFKS [AChRα 113-126, AChRα subunit peptide fragment, residues 113-126] [listing 2 of 2 here]
relative affinity for HLA-DR2 [2]: high relative affinity

affinity for HLA-DR3 [4]: high affinity
Molecule: MKLGTWTYDGSVVAINPESD [AChRα 144-163]

Molecule: V I I P C L L F S F L T G L (VIIPCLLFSFLTGL) [AChRα 218-231]
IC50 (HLA-DR2): 6.79 µM

IC50 (HLA-DR1): 1.75 µM
IC50 [4]: 71.3 µM
Molecule: CC[C@H](C)[C@H](NC(=O)[C@H](Cc1ccccc1)NC(=O)[C@H](Cc1ccc(O)cc1)NC(=O)[C@H](CC(C)C)NC(=O)[C@@H]1CCCN1C(=O)[C@H](CC(C)C)NC(=O)[C@H](CCCNC(=N)N)NC(=O)[C@H](CCC(N)=O)NC(=O)[C@H](CCSC)NC(=O)[C@@H](NC(=O)[C@H](Cc1ccccc1)NC(=O)[C@@H](N)Cc1c[nH]cn1)C(C)C)C(=O)N[C@H](C(=O)N[C@@H](CC(N)=O)C(=O)O)C(C)C [AChRα 204-217]

relative affinity for HLA-DR2 [2]: high relative affinity
Molecule: NWVRKVFIDTIPNIMFFS [AChRα 310-327, AChRα subunit peptide fragment, residues 310-327]

Molecule: I P N I M F F S T M K R P S R E K Q (IPNIMFFSTMKRPSREKQ) [AChRα 320-337]
IC50 (HLA-DR2): 6.61 µM

IC50 (HLA-DR1): > 100 µM
IC50 [4]: 6.15 µM
affinity for HLA-DR3 [4]: high affinity
Molecule: CC(C)C[C@H](NC(=O)[C@H](CCCCN)NC(=O)[C@H](C)NC(=O)[C@@H](NC(=O)[C@@H](N)CC(C)C)C(C)C)C(=O)N[C@@H](Cc1ccccc1)C(=O)N[C@@H](CCCCN)C(=O)N[C@@H](CC(=O)O)C(=O)N[C@@H](Cc1ccc(O)cc1)C(=O)N[C@@H](CO)C(=O)N[C@@H](CO)C(=O)N[C@H](C(=O)N[C@H](C(=O)N[C@@H](CCCNC(=N)N)C(=O)N1CCC[C@H]1C(=O)N[C@H](C(=O)O)C(C)C)C(C)C)C(C)C [AChRα 7-22]
